Molecules are shown by their SMILES.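 Step 1: Grow cells in 96-well plates. Step 2: Expose to compound for 48 hours at 5 concentrations. Step 3: Interpolate endpoints linearly; if unreached, use highest concentration. GI50 is the concentration that inhibits growth by half. Definition used: TGI = concentration required for complete inhibition of growth.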

For one assay, the system named is RXF 393 renal. Put plainly: growth of human tumour cells (NCI), 48 h.
In turn, `COCOC1/C=C/CCCC#C[C@H](C)C(=O)CC1` (some centres not stated) gave a TGI of 23.4 µM.
In the case of `CN(C)/N=N/c1nc2c(c(=O)n(C)c(=O)n2C)n1C`, the TGI was > 100 µM.
Regarding `COc1ccc2[nH]c(O)c(/C=c3/cc4c(c(-c5cc(OC)c(OC)c(OC)c5)n3)=Nc3ccccc3-4)c2c1`, the GI50 was 2.41 µM and the TGI worked out at 41.9 µM.
On to `COc1ccccc1N/C(=C\C(=O)C(=O)NC12CC3CC(CC(C3)C1)C2)c1ccccc1`, for which the TGI was > 10 µM.
For the molecule `NCC1CCN(c2nc3ccccc3c3c2CCCC3)CC1`, the TGI was found to be 11.7 µM.
The same measure, in the same setting: to `CCN(CC)CCc1c2c(nc3ccccc13)C(=O)c1cccnc1C2=O` belongs 7 µM; to `COc1ccccc1Nc1nc(N)nc(N)c1N=O`, > 100 µM; to `COc1cccc2c(N)c3cccc(C(=O)NCCN(C)C)c3nc12`, 0.88 µM.
Turning to `O=C(CCCCCCCCC(=O)NN1C(=O)/C(=C\c2ccc(O)c(O)c2)SC1c1ccc(Cl)cc1)NN1C(=O)/C(=C\c2ccc(O)c(O)c2)SC1c1ccc(Cl)cc1` (configuration not stated), the TGI came out at 46.2 µM.
On the same count and under the same terms, next, `CC(C)Sc1nc(C#N)cc2c1CCCC2`: 87.9 µM; `CN1C(=O)N(c2ccccc2)C2(CCN(CC3COc4ccccc4O3)CC2)C1=O` (configuration not stated): > 100 µM.
On to `O=C1/C(=C/c2ccccc2)N=C(c2ccccc2)N1n1c(-c2ccccc2)nc2ccccc2c1=O`, for which the TGI was > 100 µM.
Same read-out and setting: to `O=c1nc(N2CCN(c3ccccc3)CC2)ccn1C1OC(CO)C(O)C1O` (configuration not stated) belongs > 100 µM; to `Oc1ccc(/C=C/c2cc(O)cc(O)c2)cc1`, > 100 µM.
Take `O=C(CN1c2ccccc2Sc2ccccc21)N1CCNCC1`: the TGI was > 100 µM.
Still for that read-out and setting: to `O=C(O)c1c2c(cc3c1CC1(Cc4ccccc4C1)C3)CCC2` belongs > 100 µM.
On the same count and under the same terms, next, `Cc1nc(-c2ccc([N+](=O)[O-])cc2)cn2c1nc1ccccc12`: > 100 µM; `CN(C)CCCOC(=O)C(c1ccccc1)C1(O)CCSCC1` (configuration not stated): > 100 µM.
Same read-out and setting: to `COCOC1/C=C/CCCCC2=C(C)C=C(C1)O2` (configuration not stated) belongs > 100 µM; to `O=C(O)c1cc2c(cc1CC(Cc1ccc3c(c1)CCC3)C(=O)O)CCC2` (configuration not stated), > 100 µM.
On to `COc1cc(-c2cc(=O)c3cc4c(cc3[nH]2)OCO4)cc(OC)c1O`, for which the TGI is > 10 µM.
For the molecule `O=C(Nc1ccc(Br)cc1)c1c(-c2ccccc2)c2ccc(O)cc2oc1=O`, the TGI is > 10 µM.
Still for that read-out and setting: to `O=C1C(Cl)=C(N2CCN(C3=C(Cl)C(=O)c4ccccc4C3=O)CC2)C(=O)c2ccccc21` belongs 3.02 µM; to `CC(C)(N=NC(C)(C)C(=O)NCCO)C(=O)NCCO`, > 100 µM.
On the same count and under the same terms, next, `CCOc1cc(NC(C)=O)ccc1C(=O)NNC(=O)c1ccccc1OC(C)=O`: > 30.2 µM; `O=C(O)CN(CCNC(=O)OCC1c2ccccc2-c2ccccc21)CCNC(=O)OCC1c2ccccc2-c2ccccc21`: 67.7 µM.

The test system of a further assay is T-47D breast. Put plainly: growth of human tumour cells (NCI), 48 h.
In turn, `COCOC1/C=C/CCCC#C[C@H](C)C(=O)CC1` (some centres not stated) yielded a TGI of 31.3 µM.
Still for that read-out and setting: to `CN(C)/N=N/c1nc2c(c(=O)n(C)c(=O)n2C)n1C` belongs > 100 µM.
For the molecule `COc1ccc2[nH]c(O)c(/C=c3/cc4c(c(-c5cc(OC)c(OC)c(OC)c5)n3)=Nc3ccccc3-4)c2c1`, the GI50 was 28.5 µM and the TGI is > 100 µM.
As to `COc1ccccc1N/C(=C\C(=O)C(=O)NC12CC3CC(CC(C3)C1)C2)c1ccccc1`, the TGI was > 10 µM.
The same measure, in the same setting: next, `NCC1CCN(c2nc3ccccc3c3c2CCCC3)CC1`: 8.81 µM; `CCN(CC)CCc1c2c(nc3ccccc13)C(=O)c1cccnc1C2=O`: 5.31 µM.
Still for that read-out and setting: next, `COc1ccccc1Nc1nc(N)nc(N)c1N=O`: > 100 µM; `COc1cccc2c(N)c3cccc(C(=O)NCCN(C)C)c3nc12`: 5.38 µM; `O=C(CCCCCCCCC(=O)NN1C(=O)/C(=C\c2ccc(O)c(O)c2)SC1c1ccc(Cl)cc1)NN1C(=O)/C(=C\c2ccc(O)c(O)c2)SC1c1ccc(Cl)cc1` (configuration not stated): > 100 µM.
For the molecule `CC(C)Sc1nc(C#N)cc2c1CCCC2`, the TGI was > 100 µM.
`CN1C(=O)N(c2ccccc2)C2(CCN(CC3COc4ccccc4O3)CC2)C1=O` (configuration not stated): the TGI is > 100 µM.
Same read-out and setting: next, `O=C1/C(=C/c2ccccc2)N=C(c2ccccc2)N1n1c(-c2ccccc2)nc2ccccc2c1=O`: > 100 µM; `O=c1nc(N2CCN(c3ccccc3)CC2)ccn1C1OC(CO)C(O)C1O` (configuration not stated): 65.6 µM; `Oc1ccc(/C=C/c2cc(O)cc(O)c2)cc1`: > 100 µM.
The same measure, in the same setting: next, `O=C(CN1c2ccccc2Sc2ccccc21)N1CCNCC1`: > 100 µM; `O=C(O)c1c2c(cc3c1CC1(Cc4ccccc4C1)C3)CCC2`: > 100 µM; `Cc1nc(-c2ccc([N+](=O)[O-])cc2)cn2c1nc1ccccc12`: > 100 µM.
Take `CN(C)CCCOC(=O)C(c1ccccc1)C1(O)CCSCC1` (configuration not stated): the TGI is > 100 µM.
In the case of `COCOC1/C=C/CCCCC2=C(C)C=C(C1)O2` (configuration not stated), the TGI is > 100 µM.
Same read-out and setting: to `O=C(O)c1cc2c(cc1CC(Cc1ccc3c(c1)CCC3)C(=O)O)CCC2` (configuration not stated) belongs > 100 µM; to `COc1cc(-c2cc(=O)c3cc4c(cc3[nH]2)OCO4)cc(OC)c1O`, > 10 µM; to `O=C(Nc1ccc(Br)cc1)c1c(-c2ccccc2)c2ccc(O)cc2oc1=O`, > 10 µM.
Molecule `O=C1C(Cl)=C(N2CCN(C3=C(Cl)C(=O)c4ccccc4C3=O)CC2)C(=O)c2ccccc21` gave a TGI of 2.06 µM.
On to `CC(C)(N=NC(C)(C)C(=O)NCCO)C(=O)NCCO`, for which the TGI is > 100 µM.
For `CCOc1cc(NC(C)=O)ccc1C(=O)NNC(=O)c1ccccc1OC(C)=O`, the TGI was > 46.4 µM.
`O=C(O)CN(CCNC(=O)OCC1c2ccccc2-c2ccccc21)CCNC(=O)OCC1c2ccccc2-c2ccccc21` came in with a TGI of 49.9 µM.

Another assay has as its system RPMI-8226 leukemia. Put plainly: growth of human tumour cells (NCI), 48 h.
`COCOC1/C=C/CCCC#C[C@H](C)C(=O)CC1` (some centres not stated) displayed a TGI of 7.63 µM.
Take `CN(C)/N=N/c1nc2c(c(=O)n(C)c(=O)n2C)n1C`: the TGI is > 100 µM.
On to `COc1ccc2[nH]c(O)c(/C=c3/cc4c(c(-c5cc(OC)c(OC)c(OC)c5)n3)=Nc3ccccc3-4)c2c1`, for which the GI50 is 1.89 µM and the TGI is 11.5 µM.
In the case of `COc1ccccc1N/C(=C\C(=O)C(=O)NC12CC3CC(CC(C3)C1)C2)c1ccccc1`, the TGI was > 10 µM.
For `NCC1CCN(c2nc3ccccc3c3c2CCCC3)CC1`, the TGI turned out to be 6.3 µM.
The same measure, in the same setting: to `CCN(CC)CCc1c2c(nc3ccccc13)C(=O)c1cccnc1C2=O` belongs 6.43 µM; to `COc1ccccc1Nc1nc(N)nc(N)c1N=O`, > 100 µM; to `COc1cccc2c(N)c3cccc(C(=O)NCCN(C)C)c3nc12`, 3.87 µM.
Same read-out and setting: to `O=C(CCCCCCCCC(=O)NN1C(=O)/C(=C\c2ccc(O)c(O)c2)SC1c1ccc(Cl)cc1)NN1C(=O)/C(=C\c2ccc(O)c(O)c2)SC1c1ccc(Cl)cc1` (configuration not stated) belongs > 31.6 µM; to `CC(C)Sc1nc(C#N)cc2c1CCCC2`, 68.9 µM; to `CN1C(=O)N(c2ccccc2)C2(CCN(CC3COc4ccccc4O3)CC2)C1=O` (configuration not stated), > 100 µM.
In the case of `O=C1/C(=C/c2ccccc2)N=C(c2ccccc2)N1n1c(-c2ccccc2)nc2ccccc2c1=O`, the TGI was > 100 µM.

The values above are taken from PubChem BioAssay (NCI).
